According to patent publication US20220226311A1, “PROCASPASE-3 ACTIVATION AND IMMUNOTHERAPY FOR TREATMENT OF CANCER” (The Board of Trustees of the University of Illinois, priority 2019, published 2022):

Columns and labels:
HT-29 cells = test: Western blot for MLH1 and PARP-1 cleavage after PAC-1 treatment of cell lines; format: cell-based
Experimental: FIG. 3. PAC-1 treatment leads to MLH1 cleavage in the absence of Apoptotic Death Markers. Cell lines were incubated with indicated concentrations of PAC-1 for 72 hours, followed by western blot analysis for MLH1 protein level, as well as PARP-1, cleaved PARP-1 (c-PARP-1 is an apoptosis maker), and beta-actin (loading control).
Results. MSS/MSI status of colon cancer cell lines have been reported (Ahmed, D., et al., Oncogenesis 2013, 2, e71), allowing for selection of HT-29, an MSS colon cancer cell line. To date, studies that have focused on the cleavage of MLH1 have utilized strategies that broadly induce high levels of apoptotic cell death (i.e., with staurosporine). HT-29 cells were treated with sub-lethal PAC-1.

clinical = settings: human, in vivo, 450 mg
GL261 neurospheres = test: Tumor infiltrating lymphocytes (CD3 staining) in orthotopic GL261 syngeneic model; format: in vivo, C57BL/6 mice; settings: single-agent PAC-1 100 mg/kg PO x 10 days
Experimental: (§1) FIG. 4. PAC-1 treatment of mice with syngeneic tumors increases the numbers of tumor infiltrating lymphocytes. A) C57BL/6 mice with orthotopic transplant of GL261 neurospheres. Tumors were allowed to establish for 10 days, then mice (n=3/group) were treated with or without PAC-1 (100 mg/kg PO×10 days), then sacrificed. Tumors were stained for CD3 (brown) to identify T cell TILs. Data presented as average CD3^+ per 4 HPF/mouse. Magnification 100×. B) C57BL/6 mice with subcutaneous transplant of B16F10 cells. Tumors were allowed to establish for 7 days, then mice (n=8/group) were treated with or without PAC-1 (100 mg/kg IP×2×14 days), then sacrificed. Tumors were stained for CD3 (brown) to identify T cell TILs. Data presented as average CD3^+ per 10 HPF/mouse. Magnification 100×.

B16F10 cells = test: Tumor infiltrating lymphocytes (CD3 staining) in subcutaneous B16F10 syngeneic model; format: in vivo, C57BL/6 mice; settings: single-agent PAC-1 100 mg/kg IP x2 x14 days
Experimental: as §1

[1] = Secondary malignancies in pet dogs with cancer treated with PAC-1; format: in vivo; settings: pet dogs treated >6 months, >12 months after completion of therapy
From the text: (§2) It should be noted that cancer drugs can induce secondary cancers, for example, almost ⅓ of patients treated with single-agent vemurafenib develop secondary malignancies; but to date this has not been observed for PAC-1. Just as PAC-1 induces PC-3 cleavage selectively in cancer cells, the resulting caspase-3 activity should lead to selective MLH1 cleavage in cancer cells. It is worth noting that Turcot syndrome, a constitutional mismatch repair deficiency (CMMRD) cancer prone syndrome, is correlated with biallelic germline mutations in MMR genes, resulting in the development of GBM at a young age. Turcot syndrome and other CMMRD syndromes (i.e. Lynch Syndrome) point to the importance of maintaining MMR protein function, implying that inducing MLH1 cleavage/loss in a non-targeted, pan-organism fashion is not a viable therapeutic strategy. However, the strategy with PAC-1 leverages the well-known overexpression of PC-3 in cancer cells (including GBM) resulting in targeted MLH1 cleavage in tumors, leaving MMR proteins in normal cells unperturbed and operating.

[2] = Tolerability of PAC-1 in the human clinical trial; format: in vivo; settings: patients taking PAC-1 for over 10 months (one at 450 mg daily)
From the text: as §2

cancer cells [3] = test: Transcript profile of cancer cells treated with PAC-1; format: cell-based
From the text: (§3) Increased immune cell infiltration in PAC-1 treated GL261 tumors. […] 3) PAC-1 is efficacious in in vivo settings with intact immune systems, including syngeneic mouse (EL4, K7M2, GL261) (FIG. 7) and rat (9L) models, and canine cancer patients.

[4] = Myelosuppression in animals and humans, including IND-enabling rat and dog studies; format: in vivo, mice, rats, dogs, or humans; settings: also at very high doses in IND-enabling rat and dog studies
From the text: as §3

cancer cells [5] = test: DNA damage in cancer cells; format: cell-based
From the text: as §3

CT-26_WT cells = test: CT-26_WT subcutaneous tumor model; format: in vivo, BALB/c mice; settings: sc CT-26_WT; PAC-1 100 mg/kg i.p., anti-PD-1 10 mg/kg, 2 or 4 doses; vs vehicle+anti-IgG
Experimental: FIG. 9. Growth of CT-26_WT in BALB/c mice after 2 doses (A) versus 4 doses (B). Open circle=vehicle+anti-IgG2A antibody; square=PAC-1 (100 mg/kg)+anti-IgG2a antibody; triangle=vehicle+anti-PD-1 mAb; inverted triangle=PAC-1 (100 mg/kg)+anti-PD-1 mAb.
FIG. 10. Analysis of treatment of BALB/c mice with PAC-1 and anti-PDL1 mAb. Open circle=vehicle+anti-IgG2A antibody; square=PAC-1 (100 mg/kg)+anti-IgG2a antibody; triangle=vehicle+anti-PD-1 mAb; inverted triangle=PAC-1 (100 mg/kg)+anti-PD-1 mAb.
FIG. 8 illustrates the development of a CT-26_WT subcutaneous disease model in BALB/c mice. At day 0, BALB/c mice were injected subcutaneously with 1×10^6 CT-26_WT cells. At various day intervals, selected mice were injected (i.p.) with an empty vehicle, PAC-1 (100 mg/kg), anti-PD-1 antibody (10 mg/kg; 2 doses), anti-PD-1 antibody (10 mg/kg; 4 doses), or a combination of PAC-1 (100 mg/kg) and anti-PD-1 antibody (10 mg/kg;) as shown in Table 1.

plasma cytokines = test: Cytokine array of plasma from mice treated with PAC-1; format: in vivo, BALB/c mice; settings: PAC-1 x5 doses, pooled samples from 2-3 mice
Experimental: FIG. 12. A) Example treatment protocol. B) Cytokine array of plasma from BALB/c mice treated with PAC-1.
[…] were centrifuged at 8000 g for 10 mins, and plasma/supt was transferred to new tubes. Cytokine array was performed on 4 groups using pooled samples from 2-3 mice:
Signals were quantified using ImageJ. Data was normalized by calculating the ratio of PAC-1/vehicle mean pixel density as shown in the plot.

[6] = tested on: lung tumor microenvironment; test: Immune cell populations in lungs, PBMC and spleen after tumor challenge; format: in vivo, BALB/c mice
From the text: FIG. 13. Analysis of neutrophil and macrophage populations after treatment with PAC-1 14 days post-tumor challenge in lungs, PBMC, and spleen. Open circle=vehicle+anti-IgG2A antibody; square=PAC-1+anti-IgG2a antibody; triangle=vehicle+anti-PD-1 mAb; inverted triangle=PAC-1+anti-PD-1 mAb.
FIG. 14. Analysis of T-cells, B-cells, and NK cell populations in the lungs, PBMC, and spleen of BALB/c mice 26 days post combinatorial PAC-1 and anti-PD-1 treatment. Open circle=vehicle+anti-IgG2A antibody; square=PAC-1+anti-IgG2a antibody; triangle=vehicle+anti-PD-1 mAb; inverted triangle=PAC-1+anti-PD-1 mAb.
FIG. 15. PD-L1 expression on the surface of dendritic cells and CD45^− tumor cells 26 days post-tumor challenge in lungs, PBMC, and spleen of BALB/c mice. Open circle=vehicle+anti-IgG2A antibody; square=PAC-1+anti-IgG2a antibody; triangle=vehicle+anti-PD-1 mAb; inverted triangle=PAC-1+anti-PD-1 mAb.

[7] = combination with immune cytokine TRAIL, in culture; cited from earlier work
PMBCs = settings: cited from earlier work
[8] = single-agent treatment; cited from earlier work
[9] = HT-29 cells, sub-lethal PAC-1, 72 hours

SMILES	Selectivity of MLH1 cleavage, cancer cell lines vs normal cell line HFF-1 (HT-29 cells; 72 hours)	PARP-1 cleavage (apoptosis marker) (HT-29 cells; [9])	PC-3 activation and MLH1 cleavage (HT-29 cells; [9])	Cmax (clinical) [µM]	Number of TILs (CD3+ cells) (GL261 neurospheres)	Number of TILs (CD3+ cells) (B16F10 cells)	Secondary malignancies [1]	Ill effects on prolonged dosing [2]	Markers associated with resistance to anti-PD-1 therapy (IPRES) (cancer cells [3])	Upregulated genes in transcript profile (cancer cells [3])	Myelosuppression [4]	DNA damage (cancer cells [5])	Tumor growth (CT-26_WT cells)	Plasma cytokines (ratio PAC-1/vehicle mean pixel density) (plasma cytokines)	Neutrophils and macrophages in lung tumor microenvironment ([6]; day 14 post-tumor challenge)	Macrophages and dendritic cells in tumor microenvironment ([6]; day 26)	Extrinsic cell death [7]	Toxicity to PBMCs (PMBCs)	Fraction of patients developing secondary malignancies [8]
C=CCc1cccc(/C=N/NC(=O)CN2CCN(Cc3ccccc3)CC2)c1O [PAC-1]	cancer cell specific MLH1 cleavage	little to no PARP-1 cleavage	induced PC-3 activation and MLH1 cleavage	7.8	increased the number of TILs	increased the number of TILs	remain free of secondary malignancies	no ill effects	no upregulation	upregulation of key genes including TNFα, innate immune system agonists IL-1β and IL-8	has not been observed to induce myelosuppression	causes DNA damage selectively in cancer cells	large variation in controlling sc CT-26_WT growth	increase in cytokines that promote macrophage differentiation as well as B-cell and T-cell proliferation	appear to increase	have decreased	can enhance extrinsic cell death in culture	minimal toxicity to PMBCs	–
CCCS(=O)(=O)Nc1ccc(F)c(C(=O)c2c[nH]c3ncc(-c4ccc(Cl)cc4)cc23)c1F [vemurafenib]	–	–	–	–	–	–	–	–	–	–	–	–	–	–	–	–	–	–	⅓
